Data published in the METLIN SMRT retention time set (Domingo-Almenara et al. 2019).

assay: gradient 5% acetonitrile 3 min, to 50% in 2 min, to 85% in 15 min, held 3 min, 100 µL/min; conditions: column: Zorbax Extend-C18 2.1 x 50 mm; eluents: water / acetonitrile, 0.1% formic acid
In short: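 A Zorbax Extend-C18 column (2.1 × 50 mm, 1.8 μm) run at 100 μL/min with water and acetonitrile, both containing 0.1% formic acid, separated mixtures of ~100 pure standards. The HPLC was coupled to a quadrupole time-of-flight mass spectrometer operated in positive and negative ionization mode, with dead and dwell volumes of 40 μL and 900 μL. Each retention time was taken from a computationally picked adduct peak that was then manually inspected.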

| RP-LC retention time [s] | Compound |
| --- | --- |
| 939 | CCc1noc(-c2ccnc(-n3cnc(C(=O)NCc4ccccc4C)c3)c2)n1 |
| 1140 | CCCCn1c(=O)c2ccccc2n(Cc2nc(-c3ccccc3)no2)c1=O |
| 921 | Cc1ccc(C)c(-c2nnc(NC(=O)c3ccc4c(c3)OCCO4)o2)c1 |
| 934 | CCOc1nc2ccccc2nc1N1CCCC(C(=O)NCC2CCCO2)C1 (centres undefined) |
| 588 | Cc1cccc(NC(=O)Cn2nnc(-c3ccccc3)n2)c1C |
| 661 | CC(C)NC(=O)CSC1CCc2ccccc2NC1=O (centres undefined) |
| 730 | COc1ccc(N2CCN(C(=O)CCc3nnc4c5cc(-c6ccccc6)nn5ccn34)CC2)cc1 |
| 910 | Clc1ccccc1/C=C/c1ccnc2ccccc12 |
| 649 | CN1CCCCCCN(C(=O)c2cnccn2)[C@H]2CCC[C@H]2C1=O |
| 1170 | CCc1nc(-n2cccc2)sc1C(=O)Nc1ccc(F)c(C)c1 |
| 919 | CCn1c(=O)c(N2CCN(C(=O)NC3CCCCC3)CC2)nc2ccccc21 |
| 869 | Cc1ccc(Sc2ccccc2N2CCNCC2)c(C)c1 |
| 606 | COCC(=O)Nc1cc2c(cc1N(C)C)n(C)c(=O)c(=O)n2C |
| 1060 | CCOc1ccc(NC(=O)Nc2nccn(-c3cc(Cl)ccc3C)c2=O)cc1 |
| 749 | CCOc1ccc(-c2noc(N3CCC(C(=O)NCC4CCCO4)CC3)n2)cc1OC (centres undefined) |
| 854 | O=C(NC1(c2nc(-c3cccnc3)no2)CCCCC1)c1n[nH]c2c1CCCC2 |
| 926 | O=C(CN1C(=O)CCCc2cc(S(=O)(=O)N3CCCCC3)ccc21)NCc1ccc(Cl)cc1 |
| 601 | COc1cc(OC)cc(C(=O)N2CCN(c3cc(C)n4c(C)nnc4n3)CC2)c1 |
| 948 | O=C(NCCc1csc(-c2ccc(F)cc2)n1)Nc1ccccc1C(F)(F)F |
| 823 | CCc1ccccc1S(=O)(=O)N1CCC(N(C(=O)COC)C2CCOCC2)CC1 |
| 812 | Cc1ccc(Nc2c(-c3cc(Br)ccc3F)nc3ccc(C)cn23)cc1 |
| 706 | COC(=O)Cn1c(COc2ccccc2)nc2ccccc21 |

| RP-LC retention time [s] | Compound |
| --- | --- |
| 806 | Cc1cc(CN2CC(F)(F)C[C@H]2c2nnc(-c3ccccc3)o2)n(C)n1 |
| 715 | CCCNC(=O)C1CCCN(c2nc3ncn(CC(=O)NCc4ccc(C)cc4)c(=O)c3s2)C1 (centres undefined) |
| 981 | O=C(c1ccc(Cl)cc1)N1CCc2cc(CNS(=O)(=O)Cc3ccccc3)ccc21 |
| 1050 | O=C(NC1CCCCC1)c1ccc(-c2csc(C3CC3)n2)cc1 |
| 878 | CCn1c(=O)sc2cc(S(=O)(=O)N3CCC(C(=O)Nc4ccccc4)CC3)ccc21 |
| 657 | CCc1ccc(Oc2cc(N3CCC(C(=O)NCCc4cccnc4)CC3)ncn2)cc1 |
| 890 | COCCNC(=O)c1nnn(Cc2ccc(Cl)cc2)c1-n1cccc1 |
| 625 | COc1ccc(CCNC(=O)N2CC3CC2C(=O)O3)cc1 (centres undefined) |
| 763 | COc1ccccc1N1CCN(C(=O)c2ccc(=O)n(Cc3ccc(F)cc3)n2)CC1 |
| 780 | CCOc1ccc(CC(=O)N2CCC3(CC2)N=C(c2ccccc2)NO3)cc1 |
| 867 | COc1ccc(OC)c(S(=O)(=O)N2CCCC(C(=O)NC3CCCCC3)C2)c1 (centres undefined) |
| 840 | O=C(c1ccc2c(c1)OCO2)N1CCC2(CC1)NC(=O)N(Cc1cccc(Cl)c1)C2=O |
| 790 | Cc1ccc(CNC(=O)C2(C)CN(S(C)(=O)=O)CC(=O)N2c2ccc(F)cc2C)cc1 (centres undefined) |
| 899 | COc1cccc(Cc2nc(-c3ccc4c(c3)nc(C)c(=O)n4C)no2)c1 |
| 963 | Cc1nnc(-c2ccc3ccn(CC(=O)Nc4ccccc4Cl)c3c2)o1 |
| 576 | Cn1cc(C(=O)O)c(S(=O)(=O)N2CCOCC2)n1 |
| 750 | Cc1ccc(NC(=O)CC(=O)Nc2ccc3nc4n(c(=O)c3c2)CCCCC4)cc1F |
| 723 | CN1C(=O)CC[C@]2(C(=O)N3CCN(c4ccc(F)cc4)CC3)CCCC[C@@H]12 |
| 987 | CCc1noc(-c2cc(=O)n(CC(=O)Nc3ccccc3Cl)c3ccccc23)n1 |
| 738 | COCCN1C(=O)Cc2ccccc2C1C(=O)NCc1cc(F)ccc1F (centres undefined) |
| 623 | CN1CCc2nnc(C3CCN(C(=O)Nc4cc(Cl)cc(Cl)c4)C3)n2CC1 (centres undefined) |
| 721 | O=S(=O)(Nc1ccc(Cn2cncn2)cc1)c1ccc(F)c(F)c1 |

| RP-LC retention time [s] | Compound |
| --- | --- |
| 1110 | O=S(=O)(c1ccc(F)c(F)c1)N1CCc2nc(-c3ccc(F)cc3)ncc2C1 |
| 596 | Cc1noc(C)c1CN1CCC(NC(=O)c2ccc3cc[nH]c3c2)CC1 |
| 1040 | Cc1nc2nc(-c3ccc(C(C)(C)C)cc3)nn2c(C)c1CC(=O)N1CCCCC1 |
| 790 | CCOC(=O)C1CCN(c2nc(=O)n(CC(=O)Nc3ccccc3C)c3ccccc23)CC1 |
| 938 | Cc1cccc(OCc2nc(CCN(C)C(=O)NC3CCCCC3)no2)c1 |
| 629 | COC(=O)CNC(=O)Nc1ccc2nc(-c3ccccc3)cc(OC)c2c1 |
| 991 | CCn1c(=O)c2ccccc2n(Cc2nc(-c3ccccc3)no2)c1=O |
| 609 | Cc1ccccc1-c1nc(Cn2ccnc2)no1 |
| 561 | CCNC(=O)Nc1ccc(N2CCCCC2)nc1 |
| 1100 | CCc1ccc(-c2noc(Cn3c(=O)n(-c4ccccc4F)c(=O)c4sccc43)n2)cc1 |
| 739 | CS(=O)(=O)c1ccc(CC(=O)N2CCN(c3ccc(=O)n(-c4ccc(Cl)cc4)n3)CC2)cc1 |
| 822 | CCN(CC)c1nc2ccsc2c(=O)n1CCC(=O)NCCc1c[nH]c2ccccc12 |
| 939 | CCOC(=O)CN1N=C(C(=O)N2CCC(C)CC2)S(=O)(=O)c2ccc(C)cc21 |
| 893 | CCCn1nc2ccc(S(=O)(=O)N3CCC(C)CC3)cn2c1=O |
| 697 | CCNC(=O)c1cc(C)nc2ccc(C(C)C)cc12 |
| 829 | COc1ccc(OC)c(S(=O)(=O)N2C[C@@H](F)C[C@H]2C(=O)N2CCc3ccccc3C2)c1 |
| 670 | CCOC(=O)Nc1nc2c(s1)CN(C(=O)Nc1ccc3c(c1)OCO3)CC2 |
| 551 | CCNc1cc(N2CCCC(CCC(=O)NCCN3CCCCC3)C2)ncn1 (centres undefined) |
| 818 | CCc1ccc(NC(=O)CN2CCN(Cc3ccc(F)cc3)C(=O)C2=O)cc1 |
| 776 | Cc1cc(C)n2nc(SCC(=O)NC3CCCC(C)C3C)nc2n1 (centres undefined) |
| 620 | CC(CCc1ccco1)NC(=O)C1CCc2nc(N3CCCC3)ncc2C1 (centres undefined) |
| 1060 | COc1cccc(Cn2nc(-c3nc(-c4ccc(F)cc4)no3)ccc2=O)c1 |

| RP-LC retention time [s] | Compound |
| --- | --- |
| 885 | O=C([C@@H]1C[C@H](F)CN1S(=O)(=O)c1ccc(C(F)(F)F)cc1)N1CCCCC1 |
| 938 | CSc1cccc(NC(=O)CSc2nccc(N3CCN(c4cc(C)ccc4C)CC3)n2)c1 |
| 983 | COc1cccc(-c2noc(C3CCCN3C(=O)Nc3ccc(C)cc3)n2)c1 (centres undefined) |
| 649 | Cc1ccc(C(=O)NC2CCN(c3cc(N4CCCC4)cnn3)C2)s1 (centres undefined) |
| 627 | O=C(NCCCn1c(-c2ccncc2)nc2cccnc21)NCc1ccc(F)cc1 |
| 779 | CCc1ccc(S(=O)(=O)N2CCC3(CC2)NCCN=C3NCc2ccccc2OC)cc1 |
| 1070 | CCn1cc(-c2nc(C(=O)NCc3ccccc3Cl)cs2)c2cccnc21 |
| 575 | Cc1onc(-c2ccncc2)c1C(=O)NCCN(C)C1CCCCC1 |
| 743 | CCc1noc(NC(C)=O)c1-c1ccc(C)c(S(=O)(=O)N2CCOCC2)c1 |
| 950 | CCC1Oc2ccc(S(=O)(=O)N3CCC(C(=O)Nc4ccc(Cl)cc4)CC3)cc2NC1=O (centres undefined) |
| 762 | O=C(Nc1ccc2c(c1)OCCO2)NC1CCN(c2ccc(F)cc2)C1=O (centres undefined) |
| 1300 | CCc1ccc(-n2ncc3c(=O)n(Cc4nc(-c5ccc(C)c(C)c5)no4)cnc32)cc1 |
| 943 | CCN1C(=O)C(C)(C)COc2cc(NC(=O)Nc3ccccc3C(F)(F)F)ccc21 |
| 844 | Cc1ccc(C2NC(=O)N(CC(=O)Nc3cc(F)cc(F)c3)C3=C2C(=O)OC3)cc1 (centres undefined) |
| 709 | COCCNC(=O)c1nn(-c2ccc(Cl)cc2)c2c(=O)n(C)cnc12 |
| 629 | COc1ccccc1N1CCN(C(=O)C2=CCN(Cc3ccccc3)CC2)CC1 |
| 817 | Cn1cccc1C(=O)N1CCC2(CC1)NC(=O)N(Cc1ccc(Cl)cc1)C2=O |
| 741 | CC(C)C(NC(=O)c1ccco1)c1nc(-c2ccc3c(c2)ncn3C2CCCC2)no1 (centres undefined) |
| 660 | CCCC(=O)NC1CCN(c2ccccc2)C1=O (centres undefined) |
| 836 | CCOC(=O)c1cn(CC(=O)N2CCOc3ccc(C)cc32)c2nc(C)ccc2c1=O |
| 718 | Cc1nn(C)c(=O)c2cc(S(=O)(=O)NCc3ccco3)cn12 |

| Compound | RP-LC retention time [s] |
| --- | --- |
| COc1ccc2c(c1)C1(CCN(S(=O)(=O)c3cccs3)C1)C(=O)N2C (centres undefined) | 871 |
| COc1ccc(NC(=O)C2c3ccccc3C(=O)N3CCC(C)CC23)c(OC)c1 (centres undefined) | 867 |
